From PMC4336331, “Novel Receptor-Derived Cyclopeptides to Treat Heart Failure Caused by Anti-β1-Adrenoceptor Antibodies in a Human-Analogous Rat Model” (PLoS ONE, 2015)
Where two headings read alike, the source gives them in different places. Peptide text beside a SMILES is read from it.

What was measured:
[1] = test system: anti-β1EC2-induced heart failure (β1EC2/GST-FP-immunised rats); conditions: therapy-study, end of study, mean ±SEM
Protocol: (§1) In brief, n = 76 two months old Lewis/CrlBR rats were either s.c. immunised with 50 μg β1EC2/GST-FP, or n = 38 rats were control-injected with 0.9% NaCl (t = 0). To maintain high anti-β1EC2-titers, all immunised rats were boosted with β1EC2/GST-FP (or 0.9% NaCl) every month over 20 months as previously described. Application of the different linear or cyclic β1-AR peptides (corresponding to the primary AA-sequence of either the first (β1EC1) or the 2nd extra-cellular β1-AR loop (β1EC2)) or the β1-receptor blocker bisoprolol was initiated either 6 weeks after the 1st immunisation (i.e. 15 days after the 1st boost, prevention-study), or 8.5 months after the 1st immunisation (therapy-study).
From paraffin-embedded heart preparations cavity- and wall-dimensions were determined by computer-aided analysis of H&E-stained mid-ventricular 2μm-sections as previously described. H&E-stained paraffin-sections also served to quantify damaged and fibrotic cardiac areas (scars). For detection of mast cells, deparaffinised cardiac sections were stained with acidified (pH<2.5) toluidine blue 0.1% (Sigma). The number of toluidine-positive cells was normalized to square millimeter of cardiac tissue. TUNEL-positive cells were quantified in 2μm mid-ventricular paraffin-sections using a TMR Red in Situ Death Detection Kit (Roche, Basel, Switzerland). Only the total number of TUNEL-postive cells/section was determined without further differentiation of the specific apoptotic cell type (e.g., fibroblasts, endothelial cells, cardiomyocytes).

β1-AR mRNA = experiment: qRT-PCR of cardiac β1-AR mRNA, therapy-study; type: in vivo, Lewis/CrlBR rats; conditions: qRT-PCR normalised to GAPDH (Fig. 4C)
[2] = test system: anti-β1EC2-induced heart failure (β1EC2/GST-FP-immunised rats); experiment: Echocardiography and catheterisation, cardiomyopathic phenotype, therapy-study; type: in vivo, Lewis/CrlBR rats; conditions: echocardiography and catheterisation (Fig. 2G, H; S2 Fig.)
Protocol: as §1
In brief, the rats were lightly anaestetised (30 mg/kg ketamine-HCl and 5 mg/kg xylazine i.p.), shaved (chest), and placed supine on a special table. M-mode tracings were recorded at baseline (before immunisation), and subsequently every four months in the parasternal long and short axis views according to the guidelines of the American Society for Echocardiography. Pulsed-wave Doppler spectra were recorded from the apical five-chamber view and the velocity-time integral (VTI) of the transaortic flow served to calculate cardiac output (CO [ml/min] = Aortic VTI x (π [LV-outflow tract diameter/2]^2) x bpm).

[3] = test system: anti-β1EC2-induced heart failure (β1EC2/GST-FP-immunised rats); experiment: Heart histology (fibrotic scars, TUNEL, mast cells), therapy-study; type: in vivo, Lewis/CrlBR rats
Text: Fig 3 Histology of rat hearts (therapy-study). (A) Representative H&E-stained 2μm cross-sections of hearts (from the left to the right) from a control rat, an immunised untreated rat, a bisoprolol- and a β1EC2-CP mono-treated rat, and a β1EC2-CP/bisoprolol co-treated rat. (B) Quantification of fibrotic scars in midventricular 2μm-sections (mvhs, mid-ventricular heart-section). Columns ± error bars represent the mean number of fibrotic scars ±SEM per 3 heart sections in the indicated groups. (C) TUNEL-assay with 2μm-mvhs. Columns ± error bars represent mean numbers ±SEM of apoptotic cells (kind of cells not specified) /3 mvhs. (D) qRT-PCR of apical cardiac tissues. Columns ± error bars represent the expression of the indicated pro-fibrotic markers ±SEM in the indicated treatment-groups normalised to controls. (E) Mast cells in 2μm paraffin-mvhs from the indicated treatment-groups; columns ± error bars represent the mean numbers ±SEM of mast cells/mm^2 cardiac tissue. For all parameters shown, differences between the treatment-groups were assessed by […] one way ANOVA and Dunnett`s post-hoc test; *p<0.05; **p<0.001.

[4] = test system: anti-β1EC2-induced heart failure (β1EC2/GST-FP-immunised rats); experiment: Relative organ wet weights and body weight, therapy-study; conditions: immunised anti-β1EC2-positive rats, from 8.5 months after 1st immunisation peptides 1.0 mg/kg i.v. every 4 weeks, bisoprolol 15 mg/kg/day orally, over 12 months, month 20, mean ±SEM
Protocol: as §1
After the hearts all other relevant inner organs (e.g., lung, liver, spleen, kidneys, brain, and eyes) were removed, rinsed with ice-cold PBS, weighed, sectioned, and fixed for further histologic analysis.

anti-β1EC2-antibodies = experiment: Free anti-β1EC2-titers by ELISA, therapy-study; type: in vivo, Lewis/CrlBR rats; conditions: peptides 1.0 mg/kg/month i.v., bisoprolol 15 mg/kg/day orally (S1 Fig., Fig. 2F)
Protocol: as §1
(TIF) Click here for additional data file.

[5] = test system: anti-β1EC2-induced heart failure (β1EC2/GST-FP-immunised rats); experiment: Left heart catheterisation (haemodynamics), therapy-study; type: in vivo, Lewis/CrlBR rats; conditions: LV catheterisation month 20, mean ±SEM
Protocol: as §1

[6] = Half-life of β1EC2-peptides in rat whole blood ex vivo
[7] = immunised anti-β1EC2-positive rats, from 8.5 months after 1st immunisation peptides 1.0 mg/kg i.v. every 4 weeks, bisoprolol 15 mg/kg/day orally, over 12 months
[8] = non-immunised 0.9% NaCl-injected rats, EC2-CP 1.0 mg/kg i.v. every 4 weeks or bisoprolol 15 mg/kg/day orally over 12 months

Compound | IVS (thickness of the inter-ventricular septum) [1, 7] | LVA (total LV-area) [1, 7] | LVCA (LV-cavity area) [1, 7] | LVWA (LV wall area) [1, 7] | PW (posterior wall thickness) [1, 7] | cardiomyopathic phenotype, in words [2] | Heart, relative (wet) weight [4] | Liver, relative (wet) weight [4] | Lung, relative (wet) weight [4] | effect on anti-β1EC2-titers, in words (anti-β1EC2-antibodies) | -dP/dt (relaxation) [5, 7] | HF (heart frequence) [5, 7] | LVEDP (LV end-diastolic pressure) [5, 7] | LVSP (maximal systolic LV-pressure) [5, 7] | further results
CC(C)NCC(O)COc1ccc(COCCOC(C)C)cc1 (centres unmarked) [bisoprolol, reference compound] | 1.7 ±0.1 mm | 61.9 ±5.2 mm2 | 26.8 ±1.0 mm2 | 35.0 ±4.5 mm2 | 1.5 ±0.1 mm | only stopped further disease-progression | 2.93 ± 0.11 mg/g | 21.61 ± 1.47 mg/g | 2.88 ± 0.10 mg/g | no effect | 4238 ± 117 mmHg/s | 173 ± 3 bpm | 10.9 ± 1.3 mmHg | 108 ± 2 mmHg | IVS (thickness of the inter-ventricular septum) [1, 8]: 1.8 ±0.1 mm; LVA (total LV-area) [1, 8]: 58.4 ±0.7 mm2; LVCA (LV-cavity area) [1, 8]: 22.6 ±0.2 mm2; LVCA / LVA % [1, 8]: 38.7 ±0.5%; LVWA (LV wall area) [1, 8]: 35.8 ±0.5 mm2; PW (posterior wall thickness) [1, 8]: 1.8 ±0.1 mm; cardiac β1-AR mRNA-levels, in words (β1-AR mRNA): returned to normal levels; number of myocardial fibrotic scars, in words ([3]; midventricular 2μm-sections (Fig. 3A and B)): not seen; TUNEL-positive apopotic cells, in words ([3]; midventricular 2μm-sections (Fig. 3C)): not seen; increase in cardiac mast cells, in words ([3]; toluidine blue, mono- or co-treatment (Fig. 3E)): reversed to control levels; +dP/dt (contractilility) [5, 7]: 5697 ± 231 mmHg/s; +dP/dt (contractilility) [5, 8]: 6018 ±308 mmHg/s; -dP/dt (relaxation) [5, 8]: 4646 ± 295 mmHg/s; HF (heart frequence) [5, 8]: 168 ± 6 bpm; LVEDP (LV end-diastolic pressure) [5, 8]: 9.7 ± 0.9 mmHg; LVSP (maximal systolic LV-pressure) [5, 8]: 104 ± 4 mmHg
CC(C)[C@H](NC(=O)[C@H](Cc1ccccc1)NC(=O)[C@H](CC(=O)O)NC(=O)[C@H](CS)NC(=O)[C@H](CS)NC(=O)[C@H](CCCCN)NC(=O)[C@@H]1CCCN1C(=O)[C@H](CC(=O)O)NC(=O)[C@H](CC(N)=O)NC(=O)[C@H](Cc1ccc(O)cc1)NC(=O)[C@H](CS)NC(=O)[C@H](CCCNC(=N)N)NC(=O)[C@H](CCCNC(=N)N)NC(=O)[C@H](C)NC(=O)[C@H](CCC(=O)O)NC(=O)[C@H](CC(=O)O)NC(=O)[C@H](CO)NC(=O)[C@H](CCC(=O)O)NC(=O)[C@H](C)NC(=O)[C@H](CCCNC(=N)N)NC(=O)[C@H](C)N)C(=O)N[C@H](C(=O)N[C@@H](CC(N)=O)C(=O)N[C@@H](CCCNC(=N)N)C(=O)NCC(N)=O)[C@@H](C)O [β1EC2-Lin] (H-ARAESDEARRCYNDPKCCDFVTNRG-NH2; N-terminus and C-terminus assumed) | 1.5 ±0.1 mm | 71.2 ±3.5 mm2 | 32.7 ±1.3 mm2 | 38.5 ±2.4 mm2 | 1.6 ±0.1 mm | failed to elicit any cardiopotective effects | 2.88 ± 0.24 mg/g | 22.64 ± 0.59 mg/g | 2.77 ± 0.12 mg/g | only negligible effects | 4857 ±157 mmHg/s | 210 ±6 bpm | 14.5 ±1.2 mmHg | 116 ±4 mmHg | Half-life in whole blood, in words ([6]; ex vivo incubation experiments with whole blood (Fig. 1G)): hours; half-life ([6]; rat, whole blood): 4 h; Kidney L, relative (wet) weight [4]: 2.32 ± 0.14 mg/g; Kidney R, relative (wet) weight [4]: 2.36 ± 0.20 mg/g; Spleen, relative (wet) weight [4]: 1.49 ± 0.09 mg/g; Weight (body weight) [4]: 598 ± 38 g
